No end group written: not given here.
How the values were obtained:
[1] = test system: sarcoplasmic reticulum (SR) in mouse extensor digitorum longus (EDL) fibers; assay: SR Ca2+ leak in mechanically-skinned EDL muscle fibers (total SR Ca2+ content, [CaT]SR, after 1 min leak); format: cell-based, mouse (C57/Bl6)
Description: All experiments were approved by The University of Queensland Animal Ethics Committees. Male and female C57/Bl6 2–6-month-old mice were sacrificed by asphyxiation via CO2 exposure and the EDL muscles were rapidly excised. The EDL was pinned at resting length in a petri dish lined with Sylgard 184 (Dow Corning, Midland, MI) and immersed in paraffin oil (Ajax Chemicals, Sydney, Australia). Segments of individual fibers were mechanically skinned using jeweler’s forceps and pinned out unstretched under oil[37]–[39]. The skinned fiber was then mounted at 120% of resting length on a force transducer (Myotronic UG, Heidelberg, Germany) before transfer to a 2-ml Perspex bath containing standard K^+-based solution that broadly mimics the intracellular milieu. […] All chemicals were purchased from Sigma-Aldrich (St Louis, MO, USA) unless specified otherwise.
Variations of the standard solution were prepared. To deplete the caffeine releasable Ca^2+ (“full release solution”), 30 mM caffeine was added, [Mg^2+] was lowered to 0.05 mM (total Mg^2+ of 2.1 mM) and free EGTA was adjusted to 0.5 mM (pCa 8.5) to chelate released Ca^2+. To measure the maximum force produced by the skinned fiber, all HDTA was replaced by EGTA (relaxing solution) or CaEGTA (maximum Ca^2+ activating solution). The relaxing solution contained 50 mM EGTA and no added Ca^2+ (pCa > 9) and the maximum Ca^2+-activating solution contained 49.5 mM Ca^2+ (pCa 4.7), with total Mg^2+ of 10.3 and 8.1 mM, respectively, to maintain the free [Mg^2+] at 1 mM. A “leak solution” was also prepared, where [Mg^2+] set at 0.1 mM (total Mg^2+ of 3.4 mM) to increase the PO of RyR and with 2 mM EGTA (pCa ~8.5) to chelate leaky Ca^2+ from the SR. […] The BAPTA solution used to pre-equilibrate fibers before lysing was similar to the standard K-HDTA solution but EGTA was replaced with 0.1–1.6 mM BAPTA[37],[39].
The skinned fiber was then equilibrated for 20 s in a solution with a set [BAPTA] before being placed in a freshly triturated emulsion of Triton X-100 in paraffin oil (TX–oil) (10% v/v). The Ca^2+ released upon the membrane lysing rapidly binds to the known amount of BAPTA present within the fiber and to other sites, predominantly troponin C (TnC). The pre-equilibrating [BAPTA] was chosen such that the fiber produced a finite, non-maximal force response upon lysis. Pre-treatment of the fiber with “full release solution” allowed the non-SR Ca^2+ content of the skinned fiber to be assayed. The total amount of Ca^2+ present in the fiber could be calculated from the [BAPTA] in the equilibration solution and the magnitude of the force response. Data are presented as mean ± SD, with n denoting the number of fibers examined. Statistical significance (p < 0.05) was determined with One-way ANOVA.

RyR1 [2] = target: T1, RyR1 (Oryctolagus cuniculus, UniProt P11716); assay: Single channel electrophysiology of RyR1 channels inserted into lipid bilayers (exposure to peptide); format: biochemical, New Zealand white rabbit (skeletal SR); conditions: +40 mV
T1 construct: skeletal SR vesicles were isolated from the back and leg muscles of mature female New Zealand white rabbits; from tissue; host or cells: rabbit back and leg skeletal muscle, sarcoplasmic reticulum vesicles
T1 sequence (P11716 whole entry): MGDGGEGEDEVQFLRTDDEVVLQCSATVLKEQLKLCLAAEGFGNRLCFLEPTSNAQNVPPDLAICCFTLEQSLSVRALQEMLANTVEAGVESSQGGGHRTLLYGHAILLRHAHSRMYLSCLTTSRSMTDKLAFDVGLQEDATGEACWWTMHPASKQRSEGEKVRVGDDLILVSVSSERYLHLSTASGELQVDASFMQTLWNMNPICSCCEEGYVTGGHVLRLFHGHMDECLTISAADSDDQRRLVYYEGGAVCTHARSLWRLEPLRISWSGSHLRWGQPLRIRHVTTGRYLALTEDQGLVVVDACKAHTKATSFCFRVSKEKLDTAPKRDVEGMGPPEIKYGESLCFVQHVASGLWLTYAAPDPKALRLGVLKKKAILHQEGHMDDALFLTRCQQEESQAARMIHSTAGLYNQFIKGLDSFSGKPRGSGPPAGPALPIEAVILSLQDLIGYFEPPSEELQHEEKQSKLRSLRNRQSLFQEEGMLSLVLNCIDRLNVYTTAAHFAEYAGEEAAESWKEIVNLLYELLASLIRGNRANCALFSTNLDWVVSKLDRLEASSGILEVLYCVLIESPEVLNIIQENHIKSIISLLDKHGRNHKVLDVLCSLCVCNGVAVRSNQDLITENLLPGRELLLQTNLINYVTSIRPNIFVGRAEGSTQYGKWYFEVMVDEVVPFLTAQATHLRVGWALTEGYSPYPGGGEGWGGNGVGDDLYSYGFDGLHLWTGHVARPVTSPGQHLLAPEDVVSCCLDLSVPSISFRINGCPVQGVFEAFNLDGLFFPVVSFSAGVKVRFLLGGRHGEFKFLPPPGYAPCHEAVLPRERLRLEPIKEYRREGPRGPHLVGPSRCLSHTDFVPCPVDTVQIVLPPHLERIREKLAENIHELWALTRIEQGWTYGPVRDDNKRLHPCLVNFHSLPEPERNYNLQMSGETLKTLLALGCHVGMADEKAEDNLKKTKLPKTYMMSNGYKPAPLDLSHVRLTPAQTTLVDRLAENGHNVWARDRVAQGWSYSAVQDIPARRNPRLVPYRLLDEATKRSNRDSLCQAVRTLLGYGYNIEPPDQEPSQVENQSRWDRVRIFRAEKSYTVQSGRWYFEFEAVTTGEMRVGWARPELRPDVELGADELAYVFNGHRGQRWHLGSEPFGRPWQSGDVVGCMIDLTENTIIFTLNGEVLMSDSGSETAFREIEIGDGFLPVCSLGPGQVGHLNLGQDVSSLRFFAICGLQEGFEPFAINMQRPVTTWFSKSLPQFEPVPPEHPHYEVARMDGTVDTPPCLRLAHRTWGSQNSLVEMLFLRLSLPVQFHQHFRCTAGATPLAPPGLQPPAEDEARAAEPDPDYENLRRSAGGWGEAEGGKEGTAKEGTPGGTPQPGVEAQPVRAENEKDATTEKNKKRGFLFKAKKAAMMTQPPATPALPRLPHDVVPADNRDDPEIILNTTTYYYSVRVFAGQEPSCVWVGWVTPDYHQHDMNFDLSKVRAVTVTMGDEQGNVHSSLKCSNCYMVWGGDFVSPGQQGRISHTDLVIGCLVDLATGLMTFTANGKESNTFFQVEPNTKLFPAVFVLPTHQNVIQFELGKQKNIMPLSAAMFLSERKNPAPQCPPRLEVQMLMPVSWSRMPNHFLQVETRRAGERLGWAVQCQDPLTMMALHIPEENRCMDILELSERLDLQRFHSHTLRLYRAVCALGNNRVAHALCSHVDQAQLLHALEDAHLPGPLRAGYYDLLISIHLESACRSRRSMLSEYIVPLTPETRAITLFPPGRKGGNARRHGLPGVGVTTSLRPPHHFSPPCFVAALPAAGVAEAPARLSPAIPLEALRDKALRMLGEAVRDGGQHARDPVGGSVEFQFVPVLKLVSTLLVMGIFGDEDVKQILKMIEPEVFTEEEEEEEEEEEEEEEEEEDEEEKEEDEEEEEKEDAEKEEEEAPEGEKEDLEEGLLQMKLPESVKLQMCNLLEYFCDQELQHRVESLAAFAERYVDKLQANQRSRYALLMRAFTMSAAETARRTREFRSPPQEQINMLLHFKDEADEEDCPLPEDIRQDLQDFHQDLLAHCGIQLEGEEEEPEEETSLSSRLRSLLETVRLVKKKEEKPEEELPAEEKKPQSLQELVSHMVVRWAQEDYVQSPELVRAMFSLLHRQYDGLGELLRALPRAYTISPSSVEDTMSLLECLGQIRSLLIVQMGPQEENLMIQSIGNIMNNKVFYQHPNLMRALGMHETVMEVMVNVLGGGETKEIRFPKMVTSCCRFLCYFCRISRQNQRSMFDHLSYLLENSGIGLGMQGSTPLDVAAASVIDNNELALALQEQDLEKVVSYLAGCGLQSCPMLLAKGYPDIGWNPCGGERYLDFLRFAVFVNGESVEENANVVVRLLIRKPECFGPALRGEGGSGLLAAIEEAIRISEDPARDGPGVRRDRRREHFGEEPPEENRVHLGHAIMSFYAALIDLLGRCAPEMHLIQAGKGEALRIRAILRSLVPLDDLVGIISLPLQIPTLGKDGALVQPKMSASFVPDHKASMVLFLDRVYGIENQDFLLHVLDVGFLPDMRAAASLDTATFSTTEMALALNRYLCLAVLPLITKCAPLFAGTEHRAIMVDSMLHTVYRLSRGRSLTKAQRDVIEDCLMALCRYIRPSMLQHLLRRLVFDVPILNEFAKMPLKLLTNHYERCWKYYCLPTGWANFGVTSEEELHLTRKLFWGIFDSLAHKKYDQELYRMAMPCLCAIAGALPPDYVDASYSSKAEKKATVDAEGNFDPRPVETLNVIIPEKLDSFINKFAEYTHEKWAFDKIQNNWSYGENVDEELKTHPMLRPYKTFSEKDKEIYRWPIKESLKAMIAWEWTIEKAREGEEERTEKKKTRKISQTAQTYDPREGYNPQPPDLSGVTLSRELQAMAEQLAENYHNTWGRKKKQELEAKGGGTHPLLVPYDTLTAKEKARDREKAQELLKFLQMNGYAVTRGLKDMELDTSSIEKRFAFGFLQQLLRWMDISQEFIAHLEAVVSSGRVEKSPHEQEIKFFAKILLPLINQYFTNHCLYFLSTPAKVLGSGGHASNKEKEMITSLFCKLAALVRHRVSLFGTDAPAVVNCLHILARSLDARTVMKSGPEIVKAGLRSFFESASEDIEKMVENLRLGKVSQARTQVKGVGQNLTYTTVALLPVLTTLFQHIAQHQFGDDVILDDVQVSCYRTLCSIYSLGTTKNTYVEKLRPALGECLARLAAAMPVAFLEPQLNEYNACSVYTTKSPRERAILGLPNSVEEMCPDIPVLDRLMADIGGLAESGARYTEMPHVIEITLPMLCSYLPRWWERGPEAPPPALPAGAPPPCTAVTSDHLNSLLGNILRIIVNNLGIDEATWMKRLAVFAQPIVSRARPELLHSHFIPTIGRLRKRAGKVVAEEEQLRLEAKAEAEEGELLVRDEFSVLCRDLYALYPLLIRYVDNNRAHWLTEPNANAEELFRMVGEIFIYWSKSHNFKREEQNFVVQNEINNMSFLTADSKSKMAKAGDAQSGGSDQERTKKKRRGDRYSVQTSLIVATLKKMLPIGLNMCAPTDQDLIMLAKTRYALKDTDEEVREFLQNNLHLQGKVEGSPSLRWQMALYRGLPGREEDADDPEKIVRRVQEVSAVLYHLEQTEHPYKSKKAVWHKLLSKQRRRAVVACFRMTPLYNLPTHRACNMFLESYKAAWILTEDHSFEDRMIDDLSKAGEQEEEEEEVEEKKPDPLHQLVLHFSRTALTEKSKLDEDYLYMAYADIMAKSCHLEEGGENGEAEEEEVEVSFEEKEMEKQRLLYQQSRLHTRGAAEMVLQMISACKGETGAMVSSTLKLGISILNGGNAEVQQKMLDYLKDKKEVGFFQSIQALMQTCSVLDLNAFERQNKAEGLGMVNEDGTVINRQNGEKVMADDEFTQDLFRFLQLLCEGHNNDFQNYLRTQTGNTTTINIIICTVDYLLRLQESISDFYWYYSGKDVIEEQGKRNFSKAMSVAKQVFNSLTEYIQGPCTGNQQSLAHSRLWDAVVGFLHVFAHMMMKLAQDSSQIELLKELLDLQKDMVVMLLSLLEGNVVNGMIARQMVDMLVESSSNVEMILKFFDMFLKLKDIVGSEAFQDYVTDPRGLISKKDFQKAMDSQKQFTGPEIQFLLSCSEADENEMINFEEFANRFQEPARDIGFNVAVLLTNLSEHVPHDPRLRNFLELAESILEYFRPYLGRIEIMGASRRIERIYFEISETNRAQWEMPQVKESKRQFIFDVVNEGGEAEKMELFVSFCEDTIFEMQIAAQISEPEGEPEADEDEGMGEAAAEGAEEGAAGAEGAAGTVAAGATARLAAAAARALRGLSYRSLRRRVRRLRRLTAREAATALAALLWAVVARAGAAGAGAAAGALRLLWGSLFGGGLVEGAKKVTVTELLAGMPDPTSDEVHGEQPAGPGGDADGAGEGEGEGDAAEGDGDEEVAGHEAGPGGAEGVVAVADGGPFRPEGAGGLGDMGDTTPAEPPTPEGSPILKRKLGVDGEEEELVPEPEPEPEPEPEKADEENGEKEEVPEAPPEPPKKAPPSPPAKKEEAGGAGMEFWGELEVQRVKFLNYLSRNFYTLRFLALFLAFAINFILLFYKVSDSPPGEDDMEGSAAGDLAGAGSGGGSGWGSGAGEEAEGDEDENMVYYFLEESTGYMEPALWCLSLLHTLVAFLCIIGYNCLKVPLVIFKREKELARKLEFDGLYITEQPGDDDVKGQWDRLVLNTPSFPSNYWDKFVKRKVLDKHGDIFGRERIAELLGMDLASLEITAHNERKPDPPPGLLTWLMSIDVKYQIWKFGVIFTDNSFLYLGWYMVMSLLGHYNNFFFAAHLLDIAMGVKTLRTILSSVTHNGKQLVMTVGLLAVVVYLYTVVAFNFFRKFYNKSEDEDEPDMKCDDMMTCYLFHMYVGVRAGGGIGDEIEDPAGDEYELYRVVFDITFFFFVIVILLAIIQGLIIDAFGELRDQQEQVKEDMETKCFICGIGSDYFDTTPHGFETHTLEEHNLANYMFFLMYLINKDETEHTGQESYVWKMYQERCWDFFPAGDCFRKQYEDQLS
Description: Cardiac SR was prepared from mature female crossbred sheep hearts, and skeletal SR vesicles were isolated from the back and leg muscles of mature female New Zealand white rabbits[29],[54] with approval from the ANU Animal Experiment Ethics Committee Protocol Number A2015/35. […] Solutions for vesicle incorporation contained (mM): cis 230 caesium methanesulfonate (CsMS); 20 CsCl; 1 CaCl2 and 10 […] (TES) pH 7.4 and trans 30 CsMS; 20 CsCl; 1 CaCl2 10 TES; pH 7.4. […] Following incorporation, 200 mM CsMS was added to the trans solution and the cis solution exchanged with recording solution containing (mM): 230 CsMS; 20 CsCl; 0.001 CaCl2;10 TES and pH 7.4, with [Ca^2+] set by a [BAPTA] determined using a Ca^2+ electrode. The cytoplasmic and luminal solutions contained 1 μM and 1 mM Ca^2+ respectively, with symmetrical 250/250 mM CsMS. Bilayer voltage was switched between +40 mV and −40 mV (cytoplasmic voltage relative to grounded luminal solution) every 30 s. The activity of the RyR channels used here included 1 µM Ca^2+ in the cytoplasmic solution and 1 mM Ca^2+ in the luminal solution[29],[55]. Electrophysiology experiments were analysed using Channel 2 (P.W. Gage, M. Smith, Australian National University) and Channel 3 (N.W. Laver, University of Newcastle, Australia) software, available from the authors upon request. Statistical analyses were performed using Microsoft Excel (Office 365). […] Following most incorporation events, a single channel only was active in the bilayer and channel open probability (Po), mean open time (To), mean closed time (Tc) and open event frequency (Fo) were measured. When 2–4 channels were active in a bilayer, PO was approximated from the fractional mean current (I’F), i.e., mean current divided by maximum current. I’F is equal to PO in a single channel and indicates the average PO of multiple channels in a bilayer. […] Experiments at UN also included a minority of multi-channel experiments. The bilayer rigs, solution composition, source of channels, data acquisition and analyses methods were all identical.
Statistical analysis of single channel data was performed using Excel spreadsheets and embedded Students t-test functions or a sign test as indicated in the graphs in Figs. 1 and 3.

RyR1 [3] = target: T1, RyR1; conditions: cited from earlier work
Description: Electrophysiology experiments were carried out to determine the potency of each peptide. […] It is known that the activity of I ...

ryanodine receptor = target: T2, ryanodine receptor (Oryctolagus cuniculus, UniProt P11716); assay: Single channel recording, exposure to peptide (sheet "Supp Fig 11"; RyR isoform not given); format: biochemical; conditions: IpTxA; combined average 100pM, 1nM and 5nM; 7 listed values; sem 0.460531; t-test 3.72E-02; control = 1
T2 construct: skeletal SR vesicles were isolated from the back and leg muscles of mature female New Zealand white rabbits; from tissue; host or cells: rabbit back and leg skeletal muscle, sarcoplasmic reticulum vesicles
T2 sequence (P11716 whole entry, canonical isoform): as the sequence (P11716 whole entry) above
Description: Supplement 41467_2023_36579_MOESM6_ESM.xlsx, sheet "Supp Fig 11" | column: mean Tc; mean To; mean Po; rel Tc; rel To; rel Po

RyR2 = test system: RyR2; set-up: method as in PMID 21323602; conditions: cited from earlier work
RyR1 [4] = test system: RyR1; set-up: method as in PMID 21323602; conditions: cited from earlier work
TRPV1 = conditions: cited from earlier work

For “imperatoxin-A (GDCLPHLKRCKADNDCCGKKCKRRGTNAEKRCR; not fully specified; ends and bridges not checked; UniProt P59868 1-33, looked up) [IpTxA, member of the calcin family of scorpion derived ICK toxins, recombinant (SUMO fusion), reference compound]”, the “efficiency to increase SR Ca2+ leakage (order)” value ([1]; 10 nM) was “Xt3a > Xt3a-D1 ~ IpTxA > Xt3a-D2”, the “depletion of [CaT]SR” value ([1]; 10 nM peptide in leak solution, 1 min leak, mean ± SD, control leak 18 ± 7%) was 55 ± 18% and the “Relative amount of total Ca2+ left in the SR ([CaT]SR)” value ([1]; 10 nM peptide, 1 min leak, relative to Pre, fiber 2 of column) was 17.9. The “Relative amount of total Ca2+ left in the SR ([CaT]SR)” value ([1]; 10 nM peptide, 1 min leak, relative to Pre, fiber 3 of column) was 33.5, the “Relative amount of total Ca2+ left in the SR ([CaT]SR)” value ([1]; 10 nM peptide, 1 min leak, relative to Pre, fiber 4 of column) was 46.4 and the “Relative amount of total Ca2+ left in the SR ([CaT]SR)” value ([1]; 10 nM peptide, 1 min leak, relative to Pre, fiber 5 of column) was 44.7. The “Relative amount of total Ca2+ left in the SR ([CaT]SR)” value ([1]; 10 nM peptide, 1 min leak, relative to Pre, fiber 6 of column) was 44.3, the “Relative amount of total Ca2+ left in the SR ([CaT]SR)” value ([1]; 10 nM peptide, 1 min leak, relative to Pre, fiber 7 of column) was 51.6 and the “Relative amount of total Ca2+ left in the SR ([CaT]SR)” value ([1]; 10 nM peptide, 1 min leak, relative to Pre, fiber 8 of column) was 48.5. The “Relative amount of total Ca2+ left in the SR ([CaT]SR)” value ([1]; 10 nM peptide, 1 min leak, relative to Pre, fiber 9 of column) was 70.6, the “Relative amount of total Ca2+ left in the SR ([CaT]SR)” value ([1]; 10 nM peptide, 1 min leak, relative to Pre, fiber 10 of column) was 71.5 and the “Relative amount of total Ca2+ left in the SR ([CaT]SR), mean” value ([1]; 10 nM peptide, 1 min leak, relative to Pre, mean (n = 13 Xt3a, n = 10 others)) was 44.8. For the same molecule, the “Relative amount of total Ca2+ left in the SR ([CaT]SR)” value ([1]; 10 nM peptide, 1 min leak, relative to [CaT]SR before the leak (Pre), fiber 1 of column) was 19.4, the “activation of RyR1” value (RyR1 [2]; 0.1 nM n=2, 1 nM n=3, 10 nM n=2 grouped (n=7, P=3.7E-02)) was “show activation withn a similar range” and the “activation of RyR1 channels” value (RyR1 [2]; isolated domains and IpTxA) was “potent (pM to nM) activation of RyR1 channels”. For the same molecule, the reversibility of activity (RyR1 [3]) was “reversible” and the “mean rel Po” value (ryanodine receptor) was 1.9.

B1: GSTm2: glutathione transferase reported to modulate RyR1 and RyR2 (protein, UniProt P28161 1-218, looked up)
Glutathione S-transferase Mu 2: MPMTLGYWNIRGLAHSIRLLLEYTDSSYEEKKYTMGDAPDYDRSQWLNEKFKLGLDFPNLPYLIDGTHKITQSNAILRYIARKHNLCGESEKEQIREDILENQFMDSRMQLAKLCYDPDFEKLKPEYLQALPEMLKLYSQFLGKQPWFLGDKITFVDFIAYDVLERNQVFEPSCLDAFPNLKDFISRFEGLEKISAYMKSSRFLPRPVFTKMAVWGNK
For B1, the “effect on RyR2 activity” value (RyR2) is given as “strongly inhibits RyR2” and the “effect on RyR1 activity” value (RyR1 [4]) is given as “slightly increases the activity of RyR1”.

B2: DkTx: double-knot spider toxin with tandem repeat ICK structure, TRPV1 (peptide, UniProt P0CH43 1-79, looked up)
Tau-theraphotoxin-Hs1a: DCAKEGEVCSWGKKCCDLDNFYCPMEFIPHCKKYKPYVPVTTNCAKEGEVCGWGSKCCHGLDCPLAFIPYCEKYRGRND
In the case of B2, the avidity on washout (TRPV1) is given as “high avidity, evidenced by persistent activity during washout”.
